Assay results as given in the supplement of paper PMC10307832.

Experiments:
Assay in all cases: relative viability (nuclei count vs DMSO), 5 days (fraction); higher = more cells survive
NCI-H522 = system: NCI-H522
Summary of the method: (§1)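 Lung cancer cell lines were seeded in 1536-well plates and dosed by pin tool the next day, with either a single drug or a fixed anchor-drug dose combined with five library-drug doses (not always all listed) spaced in √10 steps. Five days later, one step fixed the cells and stained their nuclei (final 0.05% Triton X-100, 1% formaldehyde, 1 ug/ml Hoechst), and nuclei were counted on 4× images. Relative viability is the nuclei count in treated wells divided by the count in vehicle wells, and each value is the median of duplicate plates.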

NCI-H1944 = system: NCI-H1944
Summary of the method: as §1

LOU-NH91 = system: LOU-NH91
Summary of the method: as §1

NCI-H2170 = system: NCI-H2170
Summary of the method: as §1

LCLC-103H = system: LCLC-103H
Summary of the method: as §1

NCI-H358 = system: NCI-H358
Summary of the method: as §1

SK-MES-1 = system: SK-MES-1
Summary of the method: as §1

NCI-H1993 = system: NCI-H1993
Summary of the method: as §1

NCI-H2023 = system: NCI-H2023
Summary of the method: as §1

COR-L 105 = system: COR-L 105
Summary of the method: as §1

LXF-289 = system: LXF-289
Summary of the method: as §1

NCI-H1792 = system: NCI-H1792
Summary of the method: as §1

NCI-H520 = system: NCI-H520
Summary of the method: as §1

H3255 = system: H3255
Summary of the method: as §1

HCC-827 = system: HCC-827
Summary of the method: as §1

SW 900 = system: SW 900
Summary of the method: as §1

A-427 = system: A-427
Summary of the method: as §1

NCI-H2087 = system: NCI-H2087
Summary of the method: as §1

NCI-H1975 = system: NCI-H1975
Summary of the method: as §1

NCI-H1915 = system: NCI-H1915
Summary of the method: as §1

SW 1573 = system: SW 1573
Summary of the method: as §1

NCI-H1793 = system: NCI-H1793
Summary of the method: as §1

Cc1cn(-c2cc(NC(=O)c3ccc(C)c(Nc4nccc(-c5cccnc5)n4)c3)cc(C(F)(F)F)c2)cn1 [Nilotinib] + Cc1nc(Nc2ncc(C(=O)Nc3c(C)cccc3Cl)s2)cc(N2CCN(CCO)CC2)n1 [Dasatinib] (partner 0.075 µM)
relative viability (NCI-H522; first compound 0.001 µM): 0.851
relative viability (NCI-H522; first compound 0.003162 µM): 0.873
relative viability (NCI-H522; first compound 0.01 µM): 1.16
relative viability (NCI-H522; first compound 0.03162 µM): 0.715
relative viability (NCI-H522; first compound 0.1 µM): 0.596
relative viability (NCI-H1944; first compound 0.001 µM): 0.228
relative viability (NCI-H1944; first compound 0.003162 µM): 0.206
relative viability (NCI-H1944; first compound 0.01 µM): 0.217
relative viability (NCI-H1944; first compound 0.03162 µM): 0.241
relative viability (LOU-NH91; first compound 0.001 µM): 0.524
relative viability (LOU-NH91; first compound 0.003162 µM): 0.619
relative viability (LOU-NH91; first compound 0.01 µM): 0.569
relative viability (LOU-NH91; first compound 0.03162 µM): 0.489
relative viability (LOU-NH91; first compound 0.1 µM): 0.583
relative viability (NCI-H2170; first compound 0.001 µM): 0.591
relative viability (NCI-H2170; first compound 0.003162 µM): 0.576
relative viability (NCI-H2170; first compound 0.01 µM): 0.736
relative viability (NCI-H2170; first compound 0.03162 µM): 0.465
relative viability (NCI-H2170; first compound 0.1 µM): 0.406
relative viability (LCLC-103H; first compound 0.001 µM): 0.414
relative viability (LCLC-103H; first compound 0.003162 µM): 0.414
relative viability (LCLC-103H; first compound 0.01 µM): 0.51
relative viability (LCLC-103H; first compound 0.03162 µM): 0.338
relative viability (LCLC-103H; first compound 0.1 µM): 0.434
relative viability (NCI-H358; first compound 0.001 µM): 0.177
relative viability (NCI-H358; first compound 0.003162 µM): 0.153
relative viability (NCI-H358; first compound 0.01 µM): 0.18
relative viability (NCI-H358; first compound 0.03162 µM): 0.178
relative viability (NCI-H358; first compound 0.1 µM): 0.157
relative viability (SK-MES-1; first compound 0.001 µM): 0.306
relative viability (SK-MES-1; first compound 0.003162 µM): 0.334
relative viability (SK-MES-1; first compound 0.01 µM): 0.308
relative viability (SK-MES-1; first compound 0.03162 µM): 0.29
relative viability (SK-MES-1; first compound 0.1 µM): 0.207
relative viability (NCI-H1993; first compound 0.001 µM): 0.625
relative viability (NCI-H1993; first compound 0.003162 µM): 0.546
relative viability (NCI-H1993; first compound 0.01 µM): 0.495
relative viability (NCI-H1993; first compound 0.03162 µM): 0.516
relative viability (NCI-H1993; first compound 0.1 µM): 0.627
relative viability (NCI-H2023; first compound 0.001 µM): 0.471
relative viability (NCI-H2023; first compound 0.003162 µM): 0.569
relative viability (NCI-H2023; first compound 0.01 µM): 0.828
relative viability (NCI-H2023; first compound 0.03162 µM): 0.418
relative viability (NCI-H2023; first compound 0.1 µM): 0.405
relative viability (COR-L 105; first compound 0.001 µM): 0.374
relative viability (COR-L 105; first compound 0.003162 µM): 0.357
relative viability (COR-L 105; first compound 0.01 µM): 0.297
relative viability (COR-L 105; first compound 0.03162 µM): 0.345
relative viability (COR-L 105; first compound 0.1 µM): 0.222
relative viability (LXF-289; first compound 0.001 µM): 0.214
relative viability (LXF-289; first compound 0.003162 µM): 0.239
relative viability (LXF-289; first compound 0.01 µM): 0.188
relative viability (LXF-289; first compound 0.03162 µM): 0.207
relative viability (LXF-289; first compound 0.1 µM): 0.136
relative viability (NCI-H1792; first compound 0.001 µM): 0.614
relative viability (NCI-H1792; first compound 0.003162 µM): 0.591
relative viability (NCI-H1792; first compound 0.01 µM): 0.785
relative viability (NCI-H1792; first compound 0.1 µM): 1.36
relative viability (NCI-H520; first compound 0.001 µM): 0.224
relative viability (NCI-H520; first compound 0.003162 µM): 0.171
relative viability (NCI-H520; first compound 0.01 µM): 0.198
relative viability (NCI-H520; first compound 0.03162 µM): 0.156
relative viability (NCI-H520; first compound 0.1 µM): 0.147
relative viability (H3255; first compound 0.001 µM): 0.381
relative viability (H3255; first compound 0.003162 µM): 0.325
relative viability (H3255; first compound 0.03162 µM): 0.316
relative viability (H3255; first compound 0.1 µM): 0.304
relative viability (HCC-827; first compound 0.001 µM): 0.301
relative viability (HCC-827; first compound 0.003162 µM): 0.308
relative viability (HCC-827; first compound 0.01 µM): 0.329
relative viability (HCC-827; first compound 0.03162 µM): 0.283
relative viability (HCC-827; first compound 0.1 µM): 0.284
relative viability (SW 900; first compound 0.001 µM): 0.538
relative viability (SW 900; first compound 0.003162 µM): 0.617
relative viability (SW 900; first compound 0.01 µM): 0.564
relative viability (SW 900; first compound 0.03162 µM): 0.442
relative viability (SW 900; first compound 0.1 µM): 0.315
relative viability (A-427; first compound 0.001 µM): 0.663
relative viability (A-427; first compound 0.003162 µM): 0.728
relative viability (A-427; first compound 0.01 µM): 0.72
relative viability (A-427; first compound 0.03162 µM): 0.54
relative viability (A-427; first compound 0.1 µM): 0.1
relative viability (NCI-H2087; first compound 0.001 µM): 0.821
relative viability (NCI-H2087; first compound 0.003162 µM): 1.33
relative viability (NCI-H2087; first compound 0.01 µM): 1.13
relative viability (NCI-H2087; first compound 0.03162 µM): 0.357
relative viability (NCI-H2087; first compound 0.1 µM): 0.203
relative viability (NCI-H1975; first compound 0.001 µM): 0.312
relative viability (NCI-H1975; first compound 0.003162 µM): 0.39
relative viability (NCI-H1975; first compound 0.01 µM): 0.309
relative viability (NCI-H1975; first compound 0.03162 µM): 0.318
relative viability (NCI-H1975; first compound 0.1 µM): 0.209
relative viability (NCI-H1915; first compound 0.001 µM): 0.324
relative viability (NCI-H1915; first compound 0.003162 µM): 0.314
relative viability (NCI-H1915; first compound 0.01 µM): 0.354
relative viability (NCI-H1915; first compound 0.03162 µM): 0.27
relative viability (NCI-H1915; first compound 0.1 µM): 0.141
relative viability (SW 1573; first compound 0.001 µM): 0.398
relative viability (SW 1573; first compound 0.003162 µM): 0.455
relative viability (SW 1573; first compound 0.01 µM): 0.749
relative viability (SW 1573; first compound 0.03162 µM): 0.234
relative viability (SW 1573; first compound 0.1 µM): 0.261
relative viability (NCI-H1793; first compound 0.001 µM): 0.303
relative viability (NCI-H1793; first compound 0.003162 µM): 0.407
relative viability (NCI-H1793; first compound 0.01 µM): 0.459
relative viability (NCI-H1793; first compound 0.03162 µM): 0.283
relative viability (NCI-H1793; first compound 0.1 µM): 0.194
